The record followed here is patent publication US20240287138A1, “CYCLIC PEPTIDES FOR INHIBITING TNF RECEPTOR 1 ACTIVITY” (Merck Sharp & Dohme LLC, priority 2023, published 2024).

Numbered stars: 1 amine (or outer) side, 2 acyl side, 3 side chain; on linkers, the order of the positions; unused ones are H or OH. Bridge positions count the residues as written; N and C are the ends. Square brackets hold non-standard residues; d marks the D form. Peptide text beside a SMILES is read from it. * marks the point of attachment. Trp(βS-Me,7-OMe) = COc1cccc2c([C@H](C)[C@H](N)C(=O)O)c[nH]c12; Phe(4-SO2NH2) = N[C@@H](Cc1ccc(S(N)(=O)=O)cc1)C(=O)O; Phe(2-F,4-COOH) = N[C@@H](Cc1ccc(C(=O)O)cc1F)C(=O)O; dPro(trans-4-NMe2) = CN(C)[C@@H]1CN[C@@H](C(=O)O)C1; Trp(7-CN) = N#Cc1cccc2c(C[C@H](N)C(=O)O)c[nH]c12; Trp(7-Cl) = N[C@@H](Cc1c[nH]c2c(Cl)cccc12)C(=O)O; Phe(3-CONH2) = NC(=O)c1cccc(C[C@H](N)C(=O)O)c1; Phe(4-CONH2) = NC(=O)c1ccc(C[C@H](N)C(=O)O)cc1; Phe(4-COOH) = N[C@@H](Cc1ccc(C(=O)O)cc1)C(=O)O; Trp(7-aza) = N[C@@H](Cc1c[nH]c2ncccc12)C(=O)O; X3 = C[C@H](c1ccncc1)[C@H](N[*:1])C(=O)[*:2]; dPro(4S-NH2) = N[C@@H]1CN[C@@H](C(=O)O)C1; Pip(5R-OH) = O=C(O)[C@@H]1CC[C@@H](O)CN1; X1 = O=C([C@@H]1CC[C@H](N[*:1])C1)[*:2]; Gly(Nα-CH2CH2CONH2) = NC(=O)CCNCC(=O)O; Pip(4-aza) = O=C(O)[C@@H]1CNCCN1; 4Pal = N[C@@H](Cc1ccncc1)C(=O)O; NMeE = CN[C@@H](CCC(=O)O)C(=O)O; dHyp = O=C(O)[C@H]1C[C@H](O)CN1; aThr = C[C@H](O)[C@H](N)C(=O)O; Ahp(2) = CCCCC[C@H](N)C(=O)O; αMeS = C[C@](N)(CO)C(=O)O; Carboxymethyl = O=C(O)C*; Nle = CCCC[C@H](N)C(=O)O; Sar = CNCC(=O)O

Experiment [1] deals with T1, human TNFR1 extracellular domain (ECD) protein (Homo sapiens, UniProt P19438).
T1 construct: HRV 3C protease cleavage site (C); 6His (C, cleaved yes); made in house; host or cells: Sf21 insect cells (baculovirus), secreted
T1 sequence (P19438 30-211): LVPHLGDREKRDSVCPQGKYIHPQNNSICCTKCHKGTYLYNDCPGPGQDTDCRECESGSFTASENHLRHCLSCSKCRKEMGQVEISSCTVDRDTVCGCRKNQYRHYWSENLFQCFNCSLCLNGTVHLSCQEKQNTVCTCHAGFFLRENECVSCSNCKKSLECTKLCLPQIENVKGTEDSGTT
Description: SPR binding affinity to captured human TNFR1 ECD. In outline:
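Peptide binding kinetics read by SPR in HEPES pH 7.4 running buffer with 2% DMSO, with TNFR2 ECD tested in parallel for off-target binding. Receptor ECDs, insect-cell expressed and biotinylated at C-terminal avi-tag, were captured via streptavidin. KA derived from association and dissociation rate constants.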
A general note: Surface plasmon resonance follows binding to a sensor surface in real time, without labels.

For experiment [2], the target named is T2, TNFα-induced NF-κB signal transduction pathway (TNFR1 signaling) in THP-1 cells (Homo sapiens, UniProt P19438).
T2 sequence (P19438 30-455): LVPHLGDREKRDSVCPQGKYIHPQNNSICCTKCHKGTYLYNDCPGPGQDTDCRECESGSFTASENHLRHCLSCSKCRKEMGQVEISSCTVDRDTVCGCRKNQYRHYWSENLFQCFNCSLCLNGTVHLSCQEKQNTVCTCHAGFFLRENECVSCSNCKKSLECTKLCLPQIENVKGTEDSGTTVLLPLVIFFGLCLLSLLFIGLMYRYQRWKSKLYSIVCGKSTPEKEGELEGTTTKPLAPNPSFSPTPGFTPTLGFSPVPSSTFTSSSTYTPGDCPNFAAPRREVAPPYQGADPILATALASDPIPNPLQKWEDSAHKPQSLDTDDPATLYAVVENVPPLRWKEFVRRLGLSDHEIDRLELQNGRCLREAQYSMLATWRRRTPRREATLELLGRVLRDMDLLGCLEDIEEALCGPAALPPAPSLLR
The experiment in a line: THP-1 Lucia NF-κB reporter cell assay, inhibition of TNFα-induced NF-κB signaling. The format is cell-based. The note with it: THP-1 NF-κB Lucia reporter cells, 10 ng/mL TNFα, 16-18 h, secreted luciferase; read-out: THP-1 IC50. The procedure, abridged:
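IC50 from a 4-parameter logistic fit of secreted luciferase luminescence (QUANTI-Luc), normalised to min/max controls. Reporter THP-1 cells were exposed to peptides for 1 h at 37 °C before 10 ng/mL TNFα (final) was added overnight (16–18 h).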

The Kd is the concentration at which binding is half-saturated. The term IC50 denotes the point on the concentration scale where inhibition reaches its midpoint. In the case of `CCCC[C@@H]1NC(=O)[C@@H]2CC[C@@H](C2)NC(=O)[C@H]([C@@H](C)c2c[nH]c3c(OC)cccc23)NC(=O)CN(C)C(=O)[C@H](Cc2ccc(C(N)=O)cc2)NC(=O)[C@H](Cc2ccc(C(N)=O)cc2)NC(=O)[C@](C)(CO)NC(=O)[C@H](Cc2c[nH]c3c(C#N)cccc23)NC(=O)[C@H](Cc2ccc(C(=O)O)cc2)NC(=O)[C@H]([C@H](C)O)NC(=O)[C@H]2C[C@H](O)CN2C(=O)[C@H](Cc2c[nH]c3ncccc23)NC(=O)[C@@H]2CC[C@@H](O)CN2C(=O)[C@H](Cc2ccncc2)NC1=O` [SEQ ID NO. 122] (cyclo([4Pal][Pip(5R-OH)][Trp(7-aza)][dHyp][aThr][Phe(4-COOH)][Trp(7-CN)][αMeS][Phe(4-CONH2)][Phe(4-CONH2)][Sar][Trp(βS-Me,7-OMe)][X1][Nle])), the Kd in experiment [1] was 0.04 nM. In addition, in experiment [2], the IC50 came to 0.9 nM.
The compound `CCCCC[C@@H]1NC(=O)[C@@H]2CC[C@@H](C2)NC(=O)[C@H]([C@@H](C)c2c[nH]c3c(OC)cccc23)NC(=O)CN(C)C(=O)[C@H](Cc2cccc(C(N)=O)c2)NC(=O)[C@H](Cc2ccc(C(N)=O)cc2)NC(=O)[C@](C)(CO)NC(=O)[C@H](Cc2c[nH]c3c(C#N)cccc23)NC(=O)[C@H](Cc2ccc(C(=O)O)cc2)NC(=O)[C@H](CC(N)=O)NC(=O)[C@H]2C[C@H](N(C)C)CN2C(=O)[C@H](Cc2c[nH]c3ccccc23)NC(=O)[C@@H]2CC[C@@H](O)CN2C(=O)[C@H](Cc2ccncc2)NC1=O` [SEQ ID NO. 128] (cyclo([4Pal][Pip(5R-OH)]W[dPro(trans-4-NMe2)]N[Phe(4-COOH)][Trp(7-CN)][αMeS][Phe(4-CONH2)][Phe(3-CONH2)][Sar][Trp(βS-Me,7-OMe)][X1][Ahp(2)])) had a Kd in experiment [1] of 0.02 nM. For the same compound, the IC50 in experiment [2] amounted to 0.8 nM.
The matching figures for `CCCC[C@@H]1NC(=O)[C@@H]2CC[C@@H](C2)NC(=O)[C@H]([C@@H](C)c2c[nH]c3c(OC)cccc23)NC(=O)CN(C)C(=O)[C@H](Cc2ccc(C(=O)O)cc2)NC(=O)[C@H](Cc2ccc(C(N)=O)cc2)NC(=O)[C@](C)(CO)NC(=O)[C@H](Cc2c[nH]c3c(C#N)cccc23)NC(=O)[C@H](Cc2ccc(C(=O)O)cc2)NC(=O)[C@H](CC(N)=O)NC(=O)CN(CCC(N)=O)C(=O)[C@H](Cc2c[nH]c3ccccc23)NC(=O)[C@@H]2CC[C@@H](O)CN2C(=O)[C@H](Cc2ccncc2)NC1=O` [SEQ ID NO. 130] (cyclo([4Pal][Pip(5R-OH)]W[Gly(Nα-CH2CH2CONH2)]N[Phe(4-COOH)][Trp(7-CN)][αMeS][Phe(4-CONH2)][Phe(4-COOH)][Sar][Trp(βS-Me,7-OMe)][X1][Nle])): 0.06 nM and 0.7 nM.
Take `CCCC[C@@H]1NC(=O)[C@@H]2CC[C@@H](C2)NC(=O)[C@H]([C@@H](C)c2c[nH]c3c(OC)cccc23)NC(=O)CN(C)C(=O)[C@H](Cc2ccc(C(=O)O)cc2F)NC(=O)[C@H](Cc2ccc(S(N)(=O)=O)cc2)NC(=O)[C@](C)(CO)NC(=O)[C@H](Cc2c[nH]c3c(C#N)cccc23)NC(=O)[C@H](Cc2ccc(C(=O)O)cc2F)NC(=O)[C@H](CC(N)=O)NC(=O)[C@H]2C[C@H](OCC(=O)O)CN2C(=O)[C@H](Cc2c[nH]c3ncccc23)NC(=O)[C@@H]2CC[C@@H](O)CN2C(=O)[C@H](Cc2ccncc2)NC1=O` [SEQ ID NO. 134] (cyclo([4Pal][Pip(5R-OH)][Trp(7-aza)][dHyp](Carboxymethyl)N[Phe(2-F,4-COOH)][Trp(7-CN)][αMeS][Phe(4-SO2NH2)][Phe(2-F,4-COOH)][Sar][Trp(βS-Me,7-OMe)][X1][Nle])): the Kd in experiment [1] turned out to be 0.05 nM. In addition, the IC50 in experiment [2] turned out to be 0.4 nM.
The matching figures for `CCCCC[C@@H]1NC(=O)[C@@H]2CC[C@@H](C2)NC(=O)[C@H]([C@@H](C)c2c[nH]c3c(OC)cccc23)NC(=O)CN(C)C(=O)[C@H](Cc2ccc(C(N)=O)cc2)NC(=O)[C@H](Cc2ccc(C(N)=O)cc2)NC(=O)[C@](C)(CO)NC(=O)[C@H](Cc2c[nH]c3c(C#N)cccc23)NC(=O)[C@H](Cc2ccc(C(=O)O)cc2)NC(=O)[C@H](CC(N)=O)NC(=O)[C@H]2C[C@H](OCC(=O)O)CN2C(=O)[C@H](Cc2c[nH]c3ccccc23)NC(=O)[C@@H]2CNCCN2C(=O)[C@H](Cc2ccncc2)NC1=O` [SEQ ID NO. 140] (cyclo([4Pal][Pip(4-aza)]W[dHyp](Carboxymethyl)N[Phe(4-COOH)][Trp(7-CN)][αMeS][Phe(4-CONH2)][Phe(4-CONH2)][Sar][Trp(βS-Me,7-OMe)][X1][Ahp(2)])): 0.05 nM and 0.5 nM.
Consider `CCCC[C@@H]1NC(=O)[C@@H]2CC[C@@H](C2)NC(=O)[C@H]([C@@H](C)c2c[nH]c3c(OC)cccc23)NC(=O)CN(C)C(=O)[C@H](Cc2ccc(O)cc2)NC(=O)[C@H](Cc2ccc(C(=O)O)cc2)NC(=O)[C@](C)(CO)NC(=O)[C@H](Cc2c[nH]c3c(Cl)cccc23)NC(=O)[C@H](Cc2ccncc2)NC(=O)[C@H](CC(N)=O)NC(=O)CN(C)C(=O)[C@H](Cc2c[nH]c3ccccc23)NC(=O)[C@@H]2CNCCN2C(=O)[C@H](Cc2ccncc2)NC1=O` [SEQ ID NO. 141] (cyclo([4Pal][Trp(7-Cl)][αMeS][Phe(4-COOH)]Y[Sar][Trp(βS-Me,7-OMe)][X1][Nle][4Pal][Pip(4-aza)]W[Sar]N)), for which the Kd in experiment [1] was 0.06 nM. The IC50 in experiment [2] was 1.2 nM.
The matching figures for `CCCC[C@@H]1NC(=O)CSC[C@@H](C(N)=O)NC(=O)[C@H]([C@@H](C)c2c[nH]c3c(OC)cccc23)NC(=O)CN(C)C(=O)[C@H](Cc2ccc(O)cc2)NC(=O)[C@H](Cc2ccc(C(=O)O)cc2)NC(=O)[C@](C)(CO)NC(=O)[C@H](Cc2c[nH]c3c(Cl)cccc23)NC(=O)[C@H](Cc2ccncc2)NC(=O)[C@H](CC(N)=O)NC(=O)[C@H](CCC(=O)O)N(C)C(=O)[C@H](Cc2c[nH]c3ncccc23)NC(=O)[C@H](CO)NC(=O)[C@H]([C@H](C)c2ccncc2)NC1=O` [SEQ ID NO. 143] ({CH2CO}-[Nle][X3]S[Trp(7-aza)][NMeE]N[4Pal][Trp(7-Cl)][αMeS][Phe(4-COOH)]Y[Sar][Trp(βS-Me,7-OMe)]C-NH2; thioether N-14): 0.05 nM and 2.2 nM.
Regarding `CCCC[C@@H]1NC(=O)[C@@H]2CC[C@@H](C2)NC(=O)[C@H]([C@@H](C)c2c[nH]c3c(OC)cccc23)NC(=O)CN(C)C(=O)[C@H](Cc2ccc(O)cc2)NC(=O)[C@H](Cc2ccc(C(N)=O)cc2)NC(=O)[C@](C)(CO)NC(=O)[C@H](Cc2c[nH]c3c(Cl)cccc23)NC(=O)[C@H](Cc2ccncc2)NC(=O)[C@H](CC(N)=O)NC(=O)[C@H]2C[C@H](N)CN2C(=O)[C@H](Cc2c[nH]c3ccccc23)NC(=O)[C@@H]2CC[C@@H](O)CN2C(=O)[C@H](Cc2ccncc2)NC1=O` [SEQ ID NO. 144] (cyclo([4Pal][Trp(7-Cl)][αMeS][Phe(4-CONH2)]Y[Sar][Trp(βS-Me,7-OMe)][X1][Nle][4Pal][Pip(5R-OH)]W[dPro(4S-NH2)]N)), in experiment [1], the Kd came out at 0.1 nM. Further, in experiment [2], the half-maximal inhibitory concentration (IC50) was 0.6 nM.
